In one series the test system is Toxoplasma gondii. Nature of the series: Toxoplasma gondii tachyzoite (RH strain) growth in infected Vero cells, infection index. Type of series: cell-based. As to conditions: after 72 h, means of n = 3, SD ± 15%, read-out: EC50 (T. gondii). How it is done: Serial passages of cells of the Vero cell line (ATCC® CCL81™, Manassas, VA, USA) were applied for the cultivation of T. gondii tachyzoites of the RH strain (a gift from Dr. Saeed El-Ashram, State Key Laboratory for Agrobiotechnology, China Agricultural University, Beijing, China). Vero cells were cultured by using complete RPMI 1640 medium with heat-inactivated 10% FBS in a humidified 5% CO2 atmosphere, at 37 °C. The 96-well plates (5 × 10^3 cells/well in 200 µL RPMI 1640 medium) were used for the cultivation of the Vero cells and then incubated, at 37 °C, and 5% CO2 for one day, followed by removal of medium and washing the cells with PBS. Then, RPMI 1640 medium containing 2% FBS and T. gondii tachyzoites (RH strain) was given to the cells at a ratio of 5 (parasite):1 (Vero cells). After incubation, at 37 °C, and 5% CO2 for 5 h, cells were washed with PBS and then treated as described below.
Control: RPMI 1640 medium containing DMSO (1%)
Experimental: Medium + compounds (dissolved in DMSO) (50, 25, 12.5, 6.25, 3.13, 1.65, and 0.75 µg mL^−1).
After incubation, at 37 °C, and 5% CO2 for 72 h, the cells were washed with PBS, fixed in 10% formalin and stained with 1% toluidine blue. Examination of the cells and determination of the infection index (number of cells infected from 200 cells tested) of T. gondii were carried out with an inverted photomicroscope. The following equation was used for the calculation of the inhibition in %:Inhibition (%) = (I Control − I Experimental)/(I Control) × 100 where “I Control” refers to the infection index of untreated cells and “I Experimental” refers to the infection index of cells treated with test compounds.
Then, effects of test compounds on parasite growth were expressed as EC50 (effective concentration at 50%) values. EC50 values were obtained from three independent experiments.

The test system of a further series is Vero cells. Nature of the series: In vitro cytotoxicity MTT assay in Vero cells. Format: cell-based. As to conditions: Chlorocebus sabaeus; after 72 h; Vero cells (African green monkey kidney epithelial cells); means of n = 3, SD ± 15%. The procedure: MTT assays were carried out for a cytotoxicity evaluation of the test compounds. Briefly, Vero cells were cultured in 96-well plates (5 × 10^3 cells/well/200 µL) for 24 h in RPMI 1640 medium with 10% FBS and 5% CO2, at 37 °C. Cells were washed with PBS, followed by treatment with test compounds for 72 h at varying concentrations (50, 25, 12.5, 6.25, 3.13, 1.65, and 0.75 µg mL^−1) in 10% FBS medium. Cells treated solely with medium in 2% FBS were used as a negative control. The supernatant was discarded, 50 µL RPMI 1640 medium containing 14 µL MTT (5 mg mL^−1) was added, and the cells were incubated for 4 h. The supernatant was removed again, and 150 µL DMSO was added in order to dissolve the formed formazan. A FLUOstar OPTIMA spectrophotometer was applied for colorimetric analysis (λ = 540 nm). The cytotoxicity was expressed by IC50 values (concentration which caused a 50% reduction in viable cells). IC50 values were calculated from three independent experiments.

In series [1] the test system is Leishmania major promastigotes. Nature of the series: Leishmania major promastigote viability, MTT assay. Format: cell-based. The conditions noted are these: Leishmania major promastigotes after 72 h, means of n = 3, SD ± 15%. On the technique in general: Tetrazolium dyes change colour on reduction, which living cells bring about.
Series [2] relates to Leishmania major amastigotes. Nature of the series: Leishmania major amastigotes in peritoneal macrophages, percentage of infected macrophages (Giemsa). Type of series: cell-based. As to conditions: Leishmania major amastigotes after 72 h, means of n = 3, SD ± 15%.
Another series deals with macrophages. In words: Effects of test compounds on macrophages (toxicity). Type of series: cell-based, BALB/c mice. As to conditions: means of n = 3, SD ± 15%.

Broadly, the pEC50 is the EC50 on a negative log10 scale, so that one unit is a factor of ten. What is called pIC50 is −log10 of the IC50, conventionally taken in molar units. As usually defined, the melting point is the temperature of the solid-liquid transition.

Structures are written as SMILES. pEC50, pIC50: −log10 of the molar value.

Turning to `N#CC1=C(n2cccc2)n2c(nc3ccccc32)NC1c1ccc(F)cc1` (centres unmarked) [Compound 4d, 4-Pyrrolo-2-(4-fluorophenyl)-1,2-dihydropyrimido[1,2-a]benzimidazole-3-carbonitrile], the melting point was > 260 °C. Moreover, the pEC50 with Toxoplasma gondii is 4.46. This compound showed a pIC50 in the series with Vero cells of 4.38. Also, in series [1] (Leishmania major, 72 h), the pEC50 was 4.49. Also, the pEC50 in series [2] (Leishmania major, 72 h) was 4.29. The compound also gave a pIC50 in the series on macrophages (Mus musculus, Macrophage) of 4.33.
With `N#Cc1c(-c2ccccc2F)nc2nc3ccccc3n2c1N` [Compound 3c, 4-Amino-2-(2-fluorophenyl)pyrimido[1,2-a]benzimidazole-3-carbonitrile], the melting point is > 350 °C (dec.). For the same compound, the negative-log EC50 (pEC50) with Toxoplasma gondii was 4.68. In the series on Vero cells, this compound had a pIC50 of 4.59. The same compound gave a pEC50 in series [1] (Leishmania major, 72 h) of 4.49. In series [2] (Leishmania major, 72 h), this compound had a pEC50 of 4.57. Besides, in the series on macrophages (Mus musculus, Macrophage), the pIC50 was 4.68.
In the case of `N#Cc1c(-c2cc(F)cc(F)c2)nc2nc3ccccc3n2c1N` [Compound 3b, 4-Amino-2-(3,5-difluorophenyl)pyrimido[1,2-a]benzimidazole-3-carbonitrile], the melting point is > 370 °C (dec.). Also, the pEC50 with Toxoplasma gondii was 5.55. In addition, in the series on Vero cells, the pIC50 was 4.64. Moreover, the negative-log EC50 (pEC50) in series [1] (Leishmania major, 72 h) was 4.86. Moreover, in series [2] (Leishmania major, 72 h), the pEC50 is 4.54. Besides, the pIC50 in the series with macrophages (Mus musculus, Macrophage) was 4.61.
For the compound `C[C@@H]1[C@H](O)[C@@H](C)/C=C/C=C/C=C/C=C/C=C/C=C/C=C/[C@H](O[C@@H]2O[C@H](C)[C@@H](O)[C@H](N)[C@@H]2O)C[C@@H]2O[C@](O)(C[C@@H](O)C[C@@H](O)[C@H](O)CC[C@@H](O)C[C@@H](O)CC(=O)O[C@H]1C)C[C@H](O)[C@H]2C(=O)O` [AmB, Amphotericin B, reference compound], the negative logarithm of the IC50 (pIC50) in the series on Vero cells is 5.11. Moreover, the negative logarithm of the EC50 (pEC50) is 6.08 in series [1] (Leishmania major, 72 h) and 6.33 in series [2] (Leishmania major, 72 h).
Take `COc1cc(C2Nc3nc4ccccc4n3C(N)=C2C#N)cc(Br)c1OC` (centres unmarked) [Compound 2e, 4-Amino-2-(3-bromo-4,5-dimethoxyphenyl)-1,2-dihydropyrimido[1,2-a]benzimidazole-3-carbonitrile]: the melting point lay in the range of 282 to 283 °C. Further, in the series with Toxoplasma gondii, the negative-log EC50 (pEC50) is 4.54. Further, the negative-log IC50 (pIC50) in the series on Vero cells was 4.24. In addition, the pEC50 in series [1] (Leishmania major, 72 h) is 4.11. Moreover, the negative-log EC50 (pEC50) in series [2] (Leishmania major, 72 h) is 4.12. The same compound gave a pIC50 with macrophages (Mus musculus, Macrophage) of 4.19. Moreover, the pIC50 in the series with macrophages is 4.20.
In the case of `O=C1C(O)=C([C@H]2CC[C@H](c3ccc(Cl)cc3)CC2)C(=O)c2ccccc21` [ATO, atovaquone, reference compound], the pEC50 with Toxoplasma gondii is 7.15. The same compound had a pIC50 in the series with Vero cells of 5.02.
As for `N#CC1=C(N)n2c(nc3ccccc32)NC1c1ccccc1F` (centres unmarked) [Compound 2c], the negative logarithm of the EC50 (pEC50) was 4.57 with Toxoplasma gondii; 4.30 in series [1] (Leishmania major, 72 h); 4.60 in series [2] (Leishmania major, 72 h). Further, the pIC50 in the series with Vero cells is 4.74; with macrophages (Mus musculus, Macrophage), 4.50.
For `N#Cc1c(-c2ccc(F)cc2)nc2nc3ccccc3n2c1N` [Compound 3d] the same measures were 4.38, 4.43, 4.58, 4.36 and 4.70.
For `N#CC1=C(N)n2c(nc3ccccc32)NC1c1ccc(F)cc1` (centres unmarked) [Compound 2d] the same measures were 4.56, 4.84, 4.57, 4.57 and 4.71.
Consider `N#CC1=C(N)n2c(nc3ccccc32)NC1c1cccnc1` (centres unmarked) [Compound 2f, 4-Amino-2-(3-pyridyl)-1,2-dihydropyrimido[1,2-a]benzimidazole-3-carbonitrile], for which the melting point lay in the range of 289 to 290 °C. The pEC50 in the series on Toxoplasma gondii was 4.22. In the series on Vero cells, this compound showed a pIC50 of 3.98. In series [1] (Leishmania major, 72 h), this compound had a negative-log EC50 (pEC50) of 4.27. Moreover, the pEC50 in series [2] (Leishmania major, 72 h) was 3.93. Besides, the negative-log IC50 (pIC50) in the series on macrophages (Mus musculus, Macrophage) was 4.07.
On to `N#CC1=C(n2cccc2)n2c(nc3ccccc32)NC1c1cc(F)cc(F)c1` (centres unmarked) [Compound 4b, 4-Pyrrolo-2-(3,5-difluorophenyl)-1,2-dihydropyrimido[1,2-a]benzimidazole-3-carbonitrile], for which the melting point was > 240 °C. The pEC50 in the series on Toxoplasma gondii was 4.74. In the series with Vero cells, the pIC50 was 4.49. The negative logarithm of the EC50 (pEC50) in series [1] (Leishmania major, 72 h) is 4.54. In series [2] (Leishmania major, 72 h), this compound had a negative-log EC50 (pEC50) of 4.34. Also, in the series with macrophages (Mus musculus, Macrophage), the negative logarithm of the IC50 (pIC50) is 4.40.
As to `N#CC1=C(N)n2c(nc3ccccc32)NC1c1cccc(F)c1` (centres unmarked) [Compound 2a, 4-Amino-2-(3-fluorophenyl)-1,2-dihydropyrimido[1,2-a]benzimidazole-3-carbonitrile], the melting point was 216 to 217 °C (dec.). The pEC50 in the series with Toxoplasma gondii is 5.34. Further, the pIC50 in the series on Vero cells is 5.36. This compound also gave a pEC50 in series [1] of 6.41. Besides, the negative logarithm of the EC50 (pEC50) in series [1] (Leishmania major, 72 h) is 6.40 to 6.70. In series [2], this compound showed a negative-log EC50 (pEC50) of 6.70. In addition, the pEC50 in series [2] (Leishmania major, 72 h) is 6.40 to 6.70. In addition, the negative logarithm of the IC50 (pIC50) in the series on macrophages (Mus musculus, Macrophage) was 6.01.
For the compound `N#CC1=C(n2cccc2)n2c(nc3ccccc32)NC1c1ccccc1F` (centres unmarked) [Compound 4c, 4-Pyrrolo-2-(2-fluorophenyl)-1,2-dihydropyrimido[1,2-a]benzimidazole-3-carbonitrile], the melting point is > 240 °C (dec.). Moreover, the pEC50 in the series on Toxoplasma gondii is 4.61. The compound also gave a pIC50 in the series with Vero cells of 4.63. Further, the pEC50 in series [1] (Leishmania major, 72 h) is 4.82. Moreover, in series [2] (Leishmania major, 72 h), the pEC50 was 4.31. Further, in the series on macrophages (Mus musculus, Macrophage), the pIC50 is 4.36.
For `N#CC1=C(n2cccc2)n2c(nc3ccccc32)NC1c1cccc(F)c1` (centres unmarked) [Compound 4a, 4-Pyrrolo-2-(3-fluorophenyl)-1,2-dihydropyrimido[1,2-a]benzimidazole-3-carbonitrile], the melting point is > 260 °C (dec.). The pEC50 in the series on Toxoplasma gondii is 4.48. In the series on Vero cells, this compound gave a pIC50 of 4.46. This compound also gave a negative-log EC50 (pEC50) in series [1] (Leishmania major, 72 h) of 4.69. Besides, the pEC50 in series [2] (Leishmania major, 72 h) was 4.29. The same compound showed a pIC50 with macrophages (Mus musculus, Macrophage) of 4.38.
For the compound `N#Cc1c(-c2cccc(F)c2)nc2nc3ccccc3n2c1N` [Compound 3a, 4-Amino-2-(3-fluorophenyl)pyrimido[1,2-a]benzimidazole-3-carbonitrile], the melting point was > 370 °C (dec.). Besides, in the series on Toxoplasma gondii, the negative-log EC50 (pEC50) is 4.44. In the series with Vero cells, this compound showed a pIC50 of 4.42. In series [1] (Leishmania major, 72 h), this compound had a negative logarithm of the EC50 (pEC50) of 4.45. Moreover, the pEC50 in series [2] (Leishmania major, 72 h) was 4.55. This compound had a negative logarithm of the IC50 (pIC50) with macrophages (Mus musculus, Macrophage) of 4.65.
For the compound `N#CC1=C(N)n2c(nc3ccccc32)NC1c1cc(F)cc(F)c1` (centres unmarked) [Compound 2b, 4-Amino-2-(3,5-difluorophenyl)-1,2-dihydropyrimido[1,2-a]benzimidazole-3-carbonitrile], the melting point lay in the range of 279 to 280 °C. Besides, the negative-log EC50 (pEC50) with Toxoplasma gondii is 4.36. The pIC50 in the series with Vero cells was 4.48. The same compound showed a pEC50 in series [1] (Leishmania major, 72 h) of 3.97. Further, the pEC50 in series [2] (Leishmania major, 72 h) was 4.64. Further, the pIC50 in the series with macrophages (Mus musculus, Macrophage) was 4.55.

Source of the values: paper PMC9855371, “Antiparasitic Activity of Fluorophenyl-Substituted Pyrimido[1,2-a]benzimidazoles” (Biomedicines, 2023).
